{"source": "patent US12157746B2", "about": "“Tetrahydro-1H-pyrazino[2,1-a]isoindolylquinoline compounds for the treatment of autoimmune disease” (F. HOFFMANN-LA ROCHE AG, priority 2018, dated 2024)"}
{"target": "T1, human TLR7 (Homo sapiens, UniProt Q9NYK1)", "T1 sequence (Q9NYK1 27-1049)": "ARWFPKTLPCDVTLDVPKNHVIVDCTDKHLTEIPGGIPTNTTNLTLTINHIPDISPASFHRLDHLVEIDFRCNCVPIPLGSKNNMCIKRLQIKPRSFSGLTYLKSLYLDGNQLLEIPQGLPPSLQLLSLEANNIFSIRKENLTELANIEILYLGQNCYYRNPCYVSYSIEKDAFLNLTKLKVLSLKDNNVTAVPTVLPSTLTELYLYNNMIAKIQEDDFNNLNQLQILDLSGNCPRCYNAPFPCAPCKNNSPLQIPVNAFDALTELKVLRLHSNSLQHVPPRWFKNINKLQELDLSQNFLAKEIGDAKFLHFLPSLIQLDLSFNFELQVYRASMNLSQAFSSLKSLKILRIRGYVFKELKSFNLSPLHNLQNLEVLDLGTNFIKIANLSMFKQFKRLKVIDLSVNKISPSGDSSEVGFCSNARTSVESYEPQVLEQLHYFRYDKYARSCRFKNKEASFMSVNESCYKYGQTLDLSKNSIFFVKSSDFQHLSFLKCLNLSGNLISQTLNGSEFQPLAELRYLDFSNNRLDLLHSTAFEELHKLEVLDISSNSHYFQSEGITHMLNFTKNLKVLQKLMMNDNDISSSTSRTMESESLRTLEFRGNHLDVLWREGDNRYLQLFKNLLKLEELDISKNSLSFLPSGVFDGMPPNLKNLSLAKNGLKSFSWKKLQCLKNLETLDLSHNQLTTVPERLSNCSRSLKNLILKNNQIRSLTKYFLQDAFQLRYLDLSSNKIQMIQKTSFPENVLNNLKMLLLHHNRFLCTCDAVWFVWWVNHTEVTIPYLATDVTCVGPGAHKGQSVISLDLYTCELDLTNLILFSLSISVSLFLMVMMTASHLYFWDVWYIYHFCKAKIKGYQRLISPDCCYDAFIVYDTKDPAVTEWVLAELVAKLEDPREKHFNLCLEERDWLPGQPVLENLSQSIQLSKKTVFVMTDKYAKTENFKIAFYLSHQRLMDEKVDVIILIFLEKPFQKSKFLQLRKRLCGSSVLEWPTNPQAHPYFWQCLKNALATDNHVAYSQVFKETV", "assay": "HEK293-Blue-hTLR-7 cells assay", "format": "cell-based", "conditions": "HEK293-Blue-hTLR7 cells, R848 stimulation, 20 hrs, SEAP reporter; read-out: HEK/hTLR7 IC50", "summary_of_the_method": "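HEK293-Blue-hTLR7 cells (NF-κB/AP-1-driven SEAP reporter) incubated with serially diluted compound (1% DMSO final) and R848 agonist for 20 h at 37 °C. Supernatant SEAP measured with QUANTI-Blue (2 h, 37 °C) by absorbance at 620-655 nm; antagonism seen as reduced reporter.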", "units": {"IC50": "nM"}}
{"smiles": "C[C@@H]1CN(c2ccc(C#N)n3nccc23)C[C@@H]2c3ccc(N4CC5CNCC(C4)O5)cc3CN12", "note": "[Example 107, 4-[(4R,10bS)-4-methyl-8-(9-oxa-3,7-diazabicyclo[3.3.1]nonan-3-yl)-3,4,6,10b-tetrahydro-1H-pyrazino[2,1-a]isoindol-2-yl]pyrazolo[1,5-a]pyridine-7-carbonitrile]", "IC50": 14.5}
{"smiles": "CO[C@H]1CN(c2ccc3c(c2)CN2C3CN(c3ccc(C#N)c4ncccc34)C[C@H]2C)C[C@@H]1N", "note": "(single isomer, unassigned) [Example 16A]", "IC50": 5.3}
{"smiles": "CO[C@@H]1CN(c2ccc3c(c2)CN2[C@H](C)CN(c4ccc(C#N)n5nccc45)C[C@H]32)CC[C@@H]1N", "note": "[Example 105, 4-[(4R,10bS)-8-[(3R,4S)-4-amino-3-methoxy-1-piperidyl]-4-methyl-3,4,6,10b-tetrahydro-1H-pyrazino[2,1-a]isoindol-2-yl]pyrazolo[1,5-a]pyridine-7-carbonitrile]", "IC50": 4.9}
{"smiles": "C[C@@H]1CN(c2ccc(C#N)c3ncccc23)C[C@@H]2c3ccc(N4C[C@@H](N)[C@](C)(O)C4)cc3CN12", "note": "[Example 45A, 5-[(4R,10bS)-8-[(3R,4R)-4-amino-3-hydroxy-3-methyl-pyrrolidin-1-yl]-4-methyl-3,4,6,10b-tetrahydro-1H-pyrazino[2,1-a]isoindol-2-yl]quinoline-8-carbonitrile]", "IC50": 3.5}
{"smiles": "N#Cc1ccc(N2CCN3Cc4cc(N5CCNCC5)ccc4C3C2)c2scnc12", "note": "(stereo not drawn) [Example 4, 7-(8-piperazin-1-yl-3,4,6,10b-tetrahydro-1H-pyrazino[2,1-a]isoindol-2-yl)-1,3-benzothiazole-4-carbonitrile]", "IC50": 18.3}
{"smiles": "C[C@@H]1CN(c2ccc(C#N)c3ncccc23)C[C@@H]2c3ccc(N4CCNC[C@@H]4CO)cc3CN12", "note": "[Example 10, 5-[(4R,10bS)-8-[(2R)-2-(hydroxymethyl)piperazin-1-yl]-4-methyl-3,4,6,10b-tetrahydro-1H-pyrazino[2,1-a]isoindol-2-yl]quinoline-8-carbonitrile]", "IC50": "< 3.2"}
{"smiles": "CN[C@H]1CN(c2ccc3c(c2)CN2[C@H](C)CN(c4ccc(C#N)c5ncccc45)C[C@H]32)C[C@@H]1OC", "note": "[Example 23, 5-[(4R,10bS)-8-[(3S,4S)-3-methoxy-4-(methylamino)pyrrolidin-1-yl]-4-methyl-3,4,6,10b-tetrahydro-1H-pyrazino[2,1-a]isoindol-2-yl]quinoline-8-carbonitrile]", "IC50": 7}
{"smiles": "C[C@@H]1CN(c2ccc(C#N)c3ncccc23)C[C@@H]2c3ccc(N4CC5(CNCCO5)C4)cc3CN12", "note": "[Example 35, 5-[(4R,10bS)-4-methyl-8-(5-oxa-2,8-diazaspiro[3.5]nonan-2-yl)-3,4,6,10b-tetrahydro-1H-pyrazino[2,1-a]isoindol-2-yl]quinoline-8-carbonitrile]", "IC50": "< 3.2"}
{"smiles": "C[C@@H]1CN(c2ccc(C#N)c3ncccc23)C[C@@H]2c3ccc(N4CC(N)C5(COC5)C4)cc3CN12", "note": "(stereo partly drawn) [Example 18, 5-[(4R,10bS)-8-(5-amino-2-oxa-7-azaspiro[3.4]octan-7-yl)-4-methyl-3,4,6,10b-tetrahydro-1H-pyrazino[2,1-a]isoindol-2-yl]quinoline-8-carbonitrile]", "IC50": 4.9}
{"smiles": "C[C@@H]1CN(c2ccc(C#N)c3ncccc23)C[C@@H]2c3ccc(N[C@@H]4CNC[C@@H]4F)cc3CN12", "note": "[Example 32, 5-[(4R,10bS)-8-[[(3R,4S)-4-fluoropyrrolidin-3-yl]amino]-4-methyl-3,4,6,10b-tetrahydro-1H-pyrazino[2,1-a]isoindol-2-yl]quinoline-8-carbonitrile]", "IC50": 3.5}
{"smiles": "CO[C@H]1CCN(c2ccc3c(c2)CN2[C@H](C)CN(c4ccc(C#N)n5nccc45)C[C@H]32)C[C@H]1N", "note": "[Example 106, 4-[(4R,10bS)-8-[(3R,4S)-3-amino-4-methoxy-1-piperidyl]-4-methyl-3,4,6,10b-tetrahydro-1H-pyrazino[2,1-a]isoindol-2-yl]pyrazolo[1,5-a]pyridine-7-carbonitrile]", "IC50": 22.6}
{"smiles": "C[C@@H]1CN(c2ccc(C#N)c3ncccc23)C[C@@H]2c3ccc(N[C@@H]4CNC[C@H]4F)cc3CN12", "note": "[Example 33, 5-[(4R,10bS)-8-[[(3R,4R)-4-fluoropyrrolidin-3-yl]amino]-4-methyl-3,4,6,10b-tetrahydro-1H-pyrazino[2,1-a]isoindol-2-yl]quinoline-8-carbonitrile]", "IC50": "< 3.2"}
{"smiles": "[2H]c1ccc2c(N3C[C@@H](C)N4Cc5cc(N6CC(C)(N)C6)ccc5[C@H]4C3)ccc(C#N)c2n1", "note": "[Example 92, 5-[(4R,10bS)-8-(3-amino-3-methyl-azetidin-1-yl)-4-methyl-3,4,6,10b-tetrahydro-1H-pyrazino[2,1-a]isoindol-2-yl]-2-deuterio-quinoline-8-carbonitrile]", "IC50": 3.1}
{"smiles": "C[C@@H]1CN(c2ccc(C#N)c3ncccc23)C[C@@H]2c3ccc(N4C[C@H]5NCCO[C@@H]5C4)cc3CN12", "note": "[Example 44, 5-[(4R,10bS)-4-methyl-8-[(4aR,7aR)-3,4,4a,5,7,7a-hexahydro-2H-pyrrolo[3,4-b][1,4]oxazin-6-yl]-3,4,6,10b-tetrahydro-1H-pyrazino[2,1-a]isoindol-2-yl]quinoline-8-carbonitrile]", "IC50": 19.1}
{"smiles": "CO[C@@H]1CN(c2ccc3c(c2)CN2[C@H](C)CN(c4ccc(C#N)n5ncc(F)c45)C[C@H]32)C[C@H]1N", "note": "[Example 113, 4-[(4R,10bS)-8-[(3R,4R)-3-amino-4-methoxy-pyrrolidin-1-yl]-4-methyl-3,4,6,10b-tetrahydro-1H-pyrazino[2,1-a]isoindol-2-yl]-3-fluoro-pyrazolo[1,5-a]pyridine-7-carbonitrile]", "IC50": 6}
{"smiles": "C[C@@H]1CN(c2ccc(C#N)c3ncccc23)C[C@@H]2c3ccc(NCCN(C)C)cc3CN12", "note": "[Example 26, 5-[(4R,10bS)-8-[2-(dimethylamino)ethylamino]-4-methyl-3,4,6,10b-tetrahydro-1H-pyrazino[2,1-a]isoindol-2-yl]quinoline-8-carbonitrile]", "IC50": 5.8}
{"smiles": "C[C@@H]1CN(c2ccc(C#N)n3nccc23)C[C@@H]2c3ccc(N4CCNCC4)cc3CN12", "note": "[Example 5, 4-[(4R,10bS)-4-methyl-8-piperazin-1-yl-3,4,6,10b-tetrahydro-1H-pyrazino[2,1-a]isoindol-2-yl]pyrazolo[1,5-a]pyridine-7-carbonitrile]", "IC50": 4.9}
{"smiles": "CO[C@@H]1CN(c2ccc3c(c2)CN2[C@H](C)CN(c4ccc(C#N)n5nccc45)C[C@H]32)CC[C@H]1N", "note": "[Example 104, 4-[(4R,10bS)-8-[(3R,4R)-4-amino-3-methoxy-1-piperidyl]-4-methyl-3,4,6,10b-tetrahydro-1H-pyrazino[2,1-a]isoindol-2-yl]pyrazolo[1,5-a]pyridine-7-carbonitrile]", "IC50": 6.1}
{"smiles": "C[C@@H]1CN(c2ccc(C#N)c3ncccc23)C[C@@H]2c3ccc(NC4CNCCOC4)cc3CN12", "note": "(stereo partly drawn) [Example 56, 5-[(4R,10bS)-4-methyl-8-(1,4-oxazepan-6-ylamino)-3,4,6,10b-tetrahydro-1H-pyrazino[2,1-a]isoindol-2-yl]quinoline-8-carbonitrile]", "IC50": 6.9}
{"smiles": "C[C@@H]1CN(c2ccc(C#N)n3nccc23)C[C@@H]2c3ccc(N[C@H]4CNC[C@H]4F)cc3CN12", "note": "[Example 98, 4-[(4R,10bS)-8-[[(3S,4R)-4-fluoropyrrolidin-3-yl]amino]-4-methyl-3,4,6,10b-tetrahydro-1H-pyrazino[2,1-a]isoindol-2-yl]pyrazolo[1,5-a]pyridine-7-carbonitrile]", "IC50": 23.2}
{"smiles": "CO[C@H]1CN(c2ccc3c(c2)CN2[C@H](C)CN(c4ccc(C#N)c5ncccc45)C[C@H]32)C[C@@H]1N", "note": "(relative stereo) [Example 16, 5-[(4R,10bS)-8-[trans-3-amino-4-methoxy-pyrrolidin-1-yl]-4-methyl-3,4,6,10b-tetrahydro-1H-pyrazino[2,1-a]isoindol-2-yl]quinoline-8-carbonitrile]", "IC50": 6.9}
